TGI and GI50 data for 15 compounds are collected here from PubChem BioAssay (NCI).

The structures appear in SMILES notation.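 Assay format: 96-well plates, 48-hour exposure. GI50: concentration for 50% inhibition of growth. Definition used: TGI = concentration required for complete inhibition of growth.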 Bounds are passed on as bounds.

Common to all, as to experiment: DTP human tumour cell line panel, 48 h
For assay [1], the system named is HCT-116 colon.
Assay [2] concerns HCC-2998 colon.
For assay [3], the system named is OVCAR-8 ovarian.
Assay [4] relates to IGROV1 ovarian.
Assay [5] relates to U251 CNS.
The test system of assay [6] is CAKI-1 renal.
The test system of assay [7] is SK-OV-3 ovarian.
In assay [8] the test system is NCI-H226 lung.
The subject of assay [9] is MDA-MB-231 breast.
The subject of assay [10] is NCI/ADR-RES ovarian.

`Nc1c(Br)c(=O)[nH]c(=O)n1COCCO`: the TGI in assay [1], in [2], in assay [3], in assay [4], in [5] and in assay [6] was greater than 100 µM in each case.
Turning to `O=c1c2cccc3cccc(c4oc5c6cccc7cccc(c(=O)c5c14)c76)c32`, the TGI in [7] is greater than 31.6 µM; in [1] it was 17 µM; in assay [2], greater than 31.6 µM; in [3] it was 16.1 µM; in assay [4], 28.7 µM; in [8], greater than 31.6 µM. Moreover, the TGI in assay [5] worked out at 17.4 µM; in assay [6], 45.9 µM.
On to `Nc1ccn(CCO)c(=O)n1`, for which the total growth inhibition concentration (TGI) in assay [7], in assay [1], in assay [2], in assay [3], in assay [4] and in [8] was greater than 100 µM throughout. Moreover, the TGI in assay [5] and in assay [6] was greater than 100 µM in each case.
For `CCN1CCN(CC(=O)Nc2nc3ccc(NCc4ccc(Cl)cc4)cc3s2)CC1`, the GI50 in [9] is 1.89 µM; in assay [7], 2.95 µM; in assay [1] it was 3.21 µM; in assay [3] it was 4.59 µM; in assay [4] it was 3.37 µM; in assay [5], 2 µM. For the same compound, the GI50 in assay [10] was 2.88 µM; in assay [6], 2.1 µM. The TGI is 4.02 µM in assay [9]; 7.98 µM in [7]; 11.7 µM in [1]; greater than 100 µM in assay [3]; 14.9 µM in assay [4]; 4.03 µM in [5]. Besides, the concentration for total growth inhibition (TGI) in assay [10] is greater than 100 µM; in assay [6], 5.19 µM.
Regarding `O=C(/C=C/c1ccc(Cl)c(Cl)c1)c1ccc(F)cc1`, the TGI came out at 83.5 µM in [7]; 20.3 µM in assay [1]; 32.8 µM in assay [2]; 30.8 µM in assay [3]; 40.2 µM in assay [4]; 92.6 µM in assay [8]. Besides, the TGI in assay [5] turned out to be 25.7 µM; in [6], 60.8 µM.
`O=C1/C(=C/c2ccc3c(c2)OCO3)CCC1CN1CCOCC1` (stereo unspecified): the TGI in [9] turned out to be 7.73 µM; in [7], 32.9 µM; in assay [1], 14.5 µM; in assay [2], 17.4 µM; in assay [3], 21.4 µM; in assay [4] it was 40.1 µM. Further, the TGI in [8] is 33.8 µM; in assay [5], 14.3 µM; in assay [6], 9.21 µM.
For the compound `COCC1N=C(c2cc(OC)c(OC)c(OC)c2-c2cc3c(cc2C2OCCCO2)OCO3)O[C@H]1c1ccccc1` (stereo partly specified), the total growth inhibition concentration (TGI) in assay [7], in assay [1], in assay [2], in [3], in [4] and in [8] was greater than 100 µM in each case. The TGI in [5] and in assay [6] was greater than 100 µM in each case.
Take `N#C/C(=C1\NN=C(N)C(c2ccc(Cl)cc2)=C1O)c1ccc(Cl)cc1`: the total growth inhibition concentration (TGI) in assay [7], in assay [1], in assay [2], in [3], in assay [4] and in assay [8] was greater than 100 µM in each case. The concentration for total growth inhibition (TGI) in assay [5] and in assay [6] was greater than 100 µM each time.
For `C=C1C(=O)OC2C1CC[C@H](C)C13OC(=O)CC1[C@@]23C` (stereo partly specified), the concentration for total growth inhibition (TGI) in [7], in assay [1], in assay [2], in assay [3], in assay [4] and in assay [8] was greater than 100 µM throughout. For the same compound, the concentration for total growth inhibition (TGI) in assay [5] and in assay [6] was greater than 100 µM in each case.
Take `COc1ccc(C2=NN(C(=O)COc3ccc(Cl)cc3)C(O)(c3ccc(Cl)cc3)C2)cc1` (stereo unspecified): the total growth inhibition concentration (TGI) in assay [7], in assay [1], in assay [2], in assay [3], in assay [4] and in [8] was greater than 100 µM each time. The TGI in [5] and in assay [6] was greater than 100 µM each time.
`c1cc(CCN2CCCCC2)ccn1`: the concentration for total growth inhibition (TGI) in assay [9], in [7], in assay [1], in [3], in assay [4] and in assay [8] was greater than 100 µM in each case. Further, the TGI in assay [5], in [10] and in assay [6] was greater than 100 µM throughout.
Take `CCOC(=O)C1=C(NNC(=O)Cc2ccccc2)CSC1=Nc1ccccc1`: the TGI in assay [7], in assay [1], in assay [2], in assay [3], in assay [4] and in [8] was greater than 100 µM throughout. The total growth inhibition concentration (TGI) in assay [5] and in assay [6] was greater than 100 µM in each case.
Regarding `NC(=O)c1oc([N+](=O)[O-])c(-c2ccccc2)c1-c1ccccc1`, the concentration for total growth inhibition (TGI) in assay [9] was 38.6 µM; in assay [7], greater than 100 µM; in assay [1], 36 µM; in [3], 68.2 µM; in [4] it was 31.5 µM; in [8], 28.1 µM. For the same compound, the concentration for total growth inhibition (TGI) in [5] is 71.1 µM; in assay [10], 57.2 µM; in assay [6], 48.1 µM.
On to `CCCCCCCCC(=O)N(C)C1C2CN3CCC(O2)C13` (stereo unspecified), for which the TGI in assay [7], in assay [1], in assay [2], in assay [4], in assay [8] and in [5] was greater than 100 µM each time. The compound further displayed a TGI in assay [6] greater than 100 µM.
Consider `O=c1c(Sc2c(O)c3ccccc3c3ccccc3c2=O)c(O)c2ccccc2c2ccccc12`, for which the TGI in assay [7] is greater than 100 µM; in [2], greater than 100 µM; in assay [3] it was greater than 100 µM; in assay [4] it was greater than 100 µM; in assay [5] it was 84 µM; in [6], greater than 100 µM.

As a reminder, the TGI is the concentration at which net growth stops. High values mean less potent growth arrest, low ones more potent growth arrest. What is called GI50 is the concentration that inhibits growth by half.
